The molecules below were run against PRS (prolyl-tRNA synthetase) protein, PRS portion of EPRS (Homo sapiens (Human), UniProt P07814) (assay: PRS enzyme activity inhibition experiment ([3H]proline, liquid scintillation)). Settings: purified PRS protein, 37° C. for 5 to 10 minutes.
Sequence of PRS (prolyl-tRNA synthetase) protein, PRS portion of EPRS (P07814 1007-1512): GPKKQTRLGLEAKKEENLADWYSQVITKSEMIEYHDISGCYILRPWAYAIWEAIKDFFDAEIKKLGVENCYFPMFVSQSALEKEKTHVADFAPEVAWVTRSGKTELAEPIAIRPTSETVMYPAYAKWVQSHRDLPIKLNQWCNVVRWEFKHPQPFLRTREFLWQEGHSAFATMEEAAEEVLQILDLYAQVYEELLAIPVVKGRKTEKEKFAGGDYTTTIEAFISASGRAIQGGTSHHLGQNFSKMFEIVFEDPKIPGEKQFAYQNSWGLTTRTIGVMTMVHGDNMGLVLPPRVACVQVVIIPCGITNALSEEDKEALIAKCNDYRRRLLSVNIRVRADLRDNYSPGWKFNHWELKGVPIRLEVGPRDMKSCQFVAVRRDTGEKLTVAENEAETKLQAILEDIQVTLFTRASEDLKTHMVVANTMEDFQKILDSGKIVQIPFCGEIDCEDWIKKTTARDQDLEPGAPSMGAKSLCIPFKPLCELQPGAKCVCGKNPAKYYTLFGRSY
Format: biochemical
Procedure: In order to confirm the biological activities of the compounds prepared in Examples, % inhibition or IC50 values of PRS enzyme ([…]) activities were calculated.
Specifically, the portion corresponding to PRS in cDNA of EPRS was subcloned, and the obtained high-purity PRS protein was purified and used in the experiment. The compounds (1 μM) prepared in Examples were added into the reaction buffer (20 mM KPO4 (pH 7.4), 6 mM MgAc, 5 mM ATP, […] tRNA, 0.5 mM DTT, […][^3H]proline (1 mCi/mL)) and allowed to react at 37° C. for 5 to 10 minutes. The reaction was terminated with 3M paper that was in advance dried by addition of 5% TCA. The radioactivity was measured using a liquid scintillation counter.
% Inhibition and IC50 values of the respective compounds were calculated and analyzed using Microsoft Excel or Sigma Plot 8.0. In Tables 1 to 3, the results are divided into A, B and C according to the range of IC50. The case where the derived IC50 is 100 nM or less is represented by “A”, the case where the IC50 is 100 to 500 nM is represented by “B”, and the case where the IC50 is 500 nM or higher is represented by “C”.
For `Cc1ccc2c(ncn2CCC[C@H]2NCCC[C@@H]2O)c1Cl` [Example 44, (2R,3S)-2-(3-(4-chloro-5-methyl-1H-benzo[d]imidazol-1-yl)propyl)piperidin-3-ol], the IC50 was 100 to 500 nM.
`Cc1c(Br)ccc2c1ncn2CCC[C@H]1NCCC[C@@H]1O` [Example 45, (2R,3S)-2-(3-(5-bromo-4-methyl-1H-benzo[d]imidazol-1-yl)propyl)piperidin-3-ol] showed an IC50 of 100 to 500 nM.
`Cc1c(Cl)ccc2c1ncn2CCC[C@H]1NCCC[C@@H]1O` [Example 46, (2R,3S)-2-(3-(5-chloro-4-methyl-1H-benzo[d]imidazol-1-yl)propyl)piperidin-3-ol] showed an IC50 of at most 100 nM.
For `O[C@H]1CCCN[C@@H]1CCCn1cnc2c(F)c(Br)ccc21` [Example 47, (2R,3S)-2-(3-(5-bromo-4-fluoro-1H-benzo[d]imidazol-1-yl)propyl)piperidin-3-ol], the IC50 was 100 to 500 nM.
Molecule `O[C@H]1CCCN[C@@H]1CCCn1cnc2ccc(Br)c(F)c21` [Example 48, (2R,3S)-2-(3-(6-bromo-7-fluoro-1H-benzo[d]imidazol-1-yl)propyl)piperidin-3-ol] has an IC50 of 100 to 500 nM.
`O[C@H]1CCCN[C@@H]1CCCn1cnc2c(F)c(F)ccc21` [Example 49, (2R,3S)-2-(3-(4,5-difluoro-1H-benzo[d]imidazol-1-yl)propyl)piperidin-3-ol] showed an IC50 of 100 to 500 nM.
In the case of `O[C@H]1CCCN[C@@H]1CCCn1cnc2ccc(F)c(F)c21` [Example 50, (2R,3S)-2-(3-(6,7-difluoro-1H-benzo[d]imidazol-1-yl)propyl)piperidin-3-ol], the IC50 is reported as 100 to 500 nM.
In the case of `Cc1ccc2c(ncn2CCC[C@H]2NCCC[C@@H]2O)c1C` [Example 51, (2R,3S)-2-(3-(4,5-dimethyl-1H-benzo[d]imidazol-1-yl)propyl)piperidin-3-ol], the IC50 is reported as at least 500 nM.
Molecule `O[C@H]1CCCN[C@@H]1CCCn1cnc2cc(F)c(F)cc21` [Example 52, (2R,3S)-2-(3-(5,6-difluoro-1H-benzo[d]imidazol-1-yl)propyl)piperidin-3-ol] has an IC50 of 100 to 500 nM.
Molecule `O[C@H]1CCCN[C@@H]1CCCn1cnc2cc(Cl)c(Cl)cc21` [Example 53, (2R,3S)-2-(3-(5,6-dichloro-1H-benzo[d]imidazol-1-yl)propyl)piperidin-3-ol] has an IC50 of 100 to 500 nM.
`O[C@H]1CCCN[C@@H]1CCCn1cnc2cc(Br)c(Br)cc21` [Example 54, (2R,3S)-2-(3-(5,6-dibromo-1H-benzo[d]imidazol-1-yl)propyl)piperidin-3-ol] showed an IC50 of at least 500 nM.
Molecule `Cc1cc2ncn(CCC[C@H]3NCCC[C@@H]3O)c2cc1C` [Example 55, (2R,3S)-2-(3-(5,6-dimethyl-1H-benzo[d]imidazol-1-yl)propyl)piperidin-3-ol] has an IC50 of at least 500 nM.
`O[C@H]1CCCN[C@@H]1CCCn1cnc2ccc(Cl)c(Cl)c21` [Example 56, (2R,3S)-2-(3-(6,7-dichloro-1H-benzo[d]imidazol-1-yl)propyl)piperidin-3-ol] gave an IC50 of 100 to 500 nM.
Work on `O[C@H]1CCCN[C@@H]1CCCn1cnc2c(F)cc(F)cc21` [Example 57, (2R,3S)-2-(3-(4,6-difluoro-1H-benzo[d]imidazol-1-yl)propyl)piperidin-3-ol] yielded an IC50 of at least 500 nM.
With `O[C@H]1CCCN[C@@H]1CCCn1cnc2cc(F)cc(F)c21` [Example 58, (2R,3S)-2-(3-(5,7-difluoro-1H-benzo[d]imidazol-1-yl)propyl)piperidin-3-ol] the IC50 was at most 100 nM.
In the case of `COc1ccc2c(ncn2CCC[C@H]2NCCC[C@@H]2O)c1Cl` [Example 59, (2R,3S)-2-(3-(4-chloro-5-methoxy-1H-benzo[d]imidazol-1-yl)propyl)piperidin-3-ol], the IC50 is reported as 100 to 500 nM.
`COc1ccc2ncn(CCC[C@H]3NCCC[C@@H]3O)c2c1Cl` [Example 60, (2R,3S)-2-(3-(7-chloro-6-methoxy-1H-benzo[d]imidazol-1-yl)propyl)piperidin-3-ol] was tested, and the IC50 was 100 to 500 nM.
`Cc1cc(Cl)cc2c1ncn2CCC[C@H]1NCCC[C@@H]1O` [Example 61, (2R,3S)-2-(3-(6-chloro-4-methyl-1H-benzo[d]imidazol-1-yl)propyl)piperidin-3-ol] was tested, and the IC50 was at most 100 nM.
`O[C@H]1CCCN[C@@H]1CCCn1cnc2c(Cl)c(F)ccc21` [Example 62, (2R,3S)-2-(3-(4-chloro-5-fluoro-1H-benzo[d]imidazol-1-yl)propyl)piperidin-3-ol] was tested, and the IC50 was 100 to 500 nM.
`Cc1cc(Br)cc2c1ncn2CCC[C@H]1NCCC[C@@H]1O` [Example 63, (2R,3S)-2-(3-(6-bromo-4-methyl-1H-benzo[d]imidazol-1-yl)propyl)piperidin-3-ol] was tested, and the IC50 was at most 100 nM.
Molecule `Cc1c(F)ccc2c1ncn2CCC[C@H]1NCCC[C@@H]1O` [Example 64, (2R,3S)-2-(3-(5-fluoro-4-methyl-1H-benzo[d]imidazol-1-yl)propyl)piperidin-3-ol] has an IC50 of at most 100 nM.
Molecule `Cc1c(F)ccc2ncn(CCC[C@H]3NCCC[C@@H]3O)c12` [Example 65, (2R,3S)-2-(3-(6-fluoro-7-methyl-1H-benzo[d]imidazol-1-yl)propyl)piperidin-3-ol] has an IC50 of 100 to 500 nM.
`O[C@H]1CCCN[C@@H]1CCCn1cnc2c(Cl)c(C(F)(F)F)ccc21` [Example 66, (2R,3S)-2-(3-(4-chloro-5-(trifluoromethyl)-1H-benzo[d]imidazol-1-yl)propyl)piperidin-3-ol] showed an IC50 of at least 500 nM.
`O[C@H]1CCCN[C@@H]1CCCn1cnc2ccc(C(F)(F)F)c(Cl)c21` [Example 67, (2R,3S)-2-(3-(7-chloro-6-(trifluoromethyl)-1H-benzo[d]imidazol-1-yl)propyl)piperidin-3-ol] showed an IC50 of at most 100 nM.
`COC(=O)c1cc(Br)c2c(c1)ncn2CCC[C@H]1NCCC[C@@H]1O` [Example 68, methyl 7-bromo-1-(3-((2R,3S)-3-hydroxypiperidin-2-yl)propyl)-1H-benzo[d]imidazole-5-carboxylate] gave an IC50 of at least 500 nM.
Molecule `O[C@H]1CCCN[C@@H]1CCCn1cnc2cc(Cl)cc(Br)c21` [Example 69, (2R,3S)-2-(3-(7-bromo-5-chloro-1H-benzo[d]imidazol-1-yl)propyl)piperidin-3-ol] has an IC50 of at most 100 nM.
For `O[C@H]1CCCN[C@@H]1CCCn1cnc2cc(Br)cc(Cl)c21` [Example 70, (2R,3S)-2-(3-(5-bromo-7-chloro-1H-benzo[d]imidazol-1-yl)propyl)piperidin-3-ol], the IC50 was at most 100 nM.
Molecule `O[C@H]1CCCN[C@@H]1CCCn1cnc2cc(C(F)(F)F)cc(Br)c21` [Example 71, (2R,3S)-2-(3-(7-bromo-5-(trifluoromethyl)-1H-benzo[d]imidazol-1-yl)propyl)piperidin-3-ol] has an IC50 of 100 to 500 nM.
In the case of `O[C@H]1CCCN[C@@H]1CCCn1cnc2c(F)cc(Br)cc21` [Example 72, (2R,3S)-2-(3-(6-bromo-4-fluoro-1H-benzo[d]imidazol-1-yl)propyl)piperidin-3-ol], the IC50 is reported as 100 to 500 nM.
Work on `O[C@H]1CCCN[C@@H]1CCCn1cnc2cc(Br)cc(F)c21` [Example 73, (2R,3S)-2-(3-(5-bromo-7-fluoro-1H-benzo[d]imidazol-1-yl)propyl)piperidin-3-ol] yielded an IC50 of 100 to 500 nM.
`O[C@H]1CCCN[C@@H]1CCCn1cnc2c(F)ccc(Cl)c21` [Example 74, (2R,3S)-2-(3-(7-chloro-4-fluoro-1H-benzo[d]imidazol-1-yl)propyl)piperidin-3-ol] was tested, and the IC50 was 100 to 500 nM.
Molecule `O=[N+]([O-])c1c(Br)ccc2c1ncn2CCC[C@H]1NCCC[C@@H]1O` [Example 75, (2R,3S)-2-(3-(5-bromo-4-nitro-1H-benzo[d]imidazol-1-yl)propyl)piperidin-3-ol] has an IC50 of at least 500 nM.
Molecule `O=[N+]([O-])c1c(Br)ccc2ncn(CCC[C@H]3NCCC[C@@H]3O)c12` [Example 76, (2R,3S)-2-(3-(6-bromo-7-nitro-1H-benzo[d]imidazol-1-yl)propyl)piperidin-3-ol] has an IC50 of at least 500 nM.
In the case of `O=[N+]([O-])c1ccc2c(ncn2CCC[C@H]2NCCC[C@@H]2O)c1Cl` [Example 77, (2R,3S)-2-(3-(4-chloro-5-nitro-1H-benzo[d]imidazol-1-yl)propyl)piperidin-3-ol], the IC50 is reported as 100 to 500 nM.
Work on `O[C@H]1CCCN[C@@H]1CCCn1cnc2cc(C(F)(F)F)cc(Cl)c21` [Example 78, (2R,3S)-2-(3-(7-chloro-5-(trifluoromethyl)-1H-benzo[d]imidazol-1-yl)propyl)piperidin-3-ol] yielded an IC50 of 100 to 500 nM.
Molecule `O[C@H]1CCCN[C@@H]1CCCn1cnc2cc(Cl)cc(F)c21` [Example 79, (2R,3S)-2-(3-(5-chloro-7-fluoro-1H-benzo[d]imidazol-1-yl)propyl)piperidin-3-ol] has an IC50 of at most 100 nM.
Molecule `O[C@H]1CCCN[C@@H]1CCCn1cnc2cc(Cl)cc(Cl)c21` [Example 80, (2R,3S)-2-(3-(5,7-dichloro-1H-benzo[d]imidazol-1-yl)propyl)piperidin-3-ol] has an IC50 of at most 100 nM.
In the case of `O[C@H]1CCCN[C@@H]1CCCn1cnc2cc(Cl)cc(-c3cn[nH]c3)c21` [Example 81, (2R,3S)-2-(3-(5-chloro-7-(1H-pyrazol-4-yl)-1H-benzo[d]imidazol-1-yl)propyl)piperidin-3-ol], the IC50 is reported as at least 500 nM.
`O[C@H]1CCCN[C@@H]1CCCn1cnc2cc(C(F)(F)F)cc(-c3cn[nH]c3)c21` [Example 82, (2R,3S)-2-(3-(7-(1H-pyrazol-4-yl)-5-(trifluoromethyl)-1H-benzo[d]imidazol-1-yl)propyl)piperidin-3-ol] showed an IC50 of at least 500 nM.
In the case of `O[C@H]1CCCN[C@@H]1CCCn1cnc2cc(Cl)cc(-c3cccc(F)c3)c21` [Example 83, (2R,3S)-2-(3-(5-chloro-7-(3-fluorophenyl)-1H-benzo[d]imidazol-1-yl)propyl)piperidin-3-ol], the IC50 is reported as at most 100 nM.

— patent publication US10981917B2, “Heterocyclic compound, its preparation method, and pharmaceutical composition comprising the same” (Daewoong Pharmaceutical Co., Ltd., priority 2017, dated 2021)
